Here are results for 66 compounds from a melting point compilation (Tetko et al.; mined from patent text by program, amines drawn as free bases though some values may be those of a salt).

Where only a bound is given, the exact number is not on record here.

The term melting point denotes the temperature, or range, at which the solid turns liquid. In the case of `CC(C)c1cc(C(C)(C)C)cc(C=O)c1O`, the melting point lay within 128 to 130 °C.

With `CC(C)(CO)NS(=O)(=O)c1cccc(NC(=O)c2cnn3c(C(F)(F)F)cc(-c4ccc(C(F)(F)F)c(F)c4)nc23)c1`, the melting point came to 221 °C.

The compound `CC(O)(C(=O)NCCC(F)(F)F)C(=O)NC1C(=O)N(CCO)c2ccccc2-c2ccccc21` (stereo unspecified) had a melting point of 59 to 62 °C.

`C[Si](C)(C)C(N)Cc1ccccc1` (stereo unspecified) displayed a melting point of 67 to 68 °C.

`CC(C)[C@H](NS(=O)(=O)c1ccc(-c2ccc(Br)cc2)cc1)C(=O)O` showed a melting point of 192 to 193 °C.

`COc1nc(O)nc(C)c1Cl` registered a melting point of 235 °C.

In turn, `O=C1Nc2ccccc2C1(O)c1ccc2c(c1)OCO2` (stereo unspecified) had a melting point of 177 to 180 °C.

For `CCN(CC)c1nc2ccccc2n2c(C(F)(F)F)nnc12`, the melting point lay within 155 to 157 °C.

In turn, `O=C(O)c1ccc(CO)c2ccccc12` registered a melting point of 183 to 184 °C.

The compound `Cn1nnnc1-c1cnc2ccccn2c1=O` yielded a melting point of 280 to 282 °C.

Compound `Cn1nc(-c2c(F)cc(Cl)c(=S)n2Cc2ccccc2)c(Cl)c1OC(F)F` had a melting point of 135 to 138 °C.

With `CC(C)Oc1ccccc1-c1nc2ccc(C(=O)O)cc2c(=O)[nH]1`, the melting point was 316 to 318 °C.

Consider `O=C(c1ccc(OC(F)(F)F)cc1)c1sccc1O`, for which the melting point was 67 to 70 °C.

For the compound `CCCCCCc1c(Cl)nc(NC=O)nc1Cl`, the melting point fell in the range of 80 to 81 °C.

Take `CCN1c2ccccc2C=C(Br)c2ccccc21`: the melting point was found to be 148 °C.

Consider `C=CCSc1ccc(OC)nn1`, for which the melting point was 25 to 27 °C.

In the case of `CC(c1ccc(NC=O)cc1)n1ccnc1` (stereo unspecified), the melting point was 129 °C.

`C=CCn1nc(-c2cc(C(C)(C)C)c(O)c(C(C)(C)C)c2)c2cccnc21` had a melting point of 120 to 123 °C.

For `CCOC(=O)CCc1cn(Cc2cc(OCc3nc(-c4ccccc4)oc3C)no2)nc1OCC`, the melting point was in the range of 82 to 83 °C.

In the case of `Nc1ncnc2c1ncn2OCCSCP(=O)(O)O`, the melting point is 211 to 213 °C.

Turning to `Cc1cc2c(cc1C)C(O)(c1ccccc1Cl)C(=O)N2` (stereo unspecified), the melting point was 251 to 253 °C.

The compound `ON=C1c2cc(Cl)ccc2-n2cccc21` yielded a melting point of 211 °C.

Regarding `CSCC(=O)C(Cc1ccccc1)NC(=O)C(CC(C)C)NC(=O)Cc1cccc2ccccc12` (stereo unspecified), the melting point is 126 to 129 °C.

`CC(Cc1c[nH]c2ccccc12)(NC(=O)OC1C2CC3CC(C2)CC1C3)C(=O)NCCc1nc[nH]n1` (stereo unspecified): the melting point lay within 124 to 128 °C.

Compound `CCCCCNS(=O)(=O)NC(=O)OCc1ccccc1` registered a melting point of 142 to 143 °C.

For `O=C(Nc1cc(F)ccc1F)c1cc(-c2ccc(F)cc2F)ccc1O`, the melting point lay within 213 to 214 °C.

As for `Nc1ncc(Cc2ccccc2)cc1Br`, the melting point lay in the range of 110 to 111 °C.

In the case of `Cc1cccc(OCC(=S)NCCNC(=S)Nc2ccccc2)c1C`, the melting point fell in the range of 112 to 113 °C.

The compound `COc1ccc(C(=O)Nc2ccccc2)c(NS(=O)(=O)c2ccc([N+](=O)[O-])cc2)c1` registered a melting point of 224 to 227 °C.

Regarding `COC(=O)c1ccc(Sc2cccc(OCCCCl)c2)cc1`, the melting point was 47 to 49 °C.

Regarding `CC(C)(C)C(=O)Nc1nc(O)c2cc(C#Cc3ccc(C(=O)O)cc3)cnc2n1`, the melting point was more than 250 °C.

`O=C(Nc1c(F)cccc1F)c1ccc(-n2nc(C(F)(F)F)cc2C2CC2)c(F)c1` returned a melting point of 168 to 170 °C.

For `COc1nccc2c1C(c1ccccc1C(F)(F)F)c1c(ccnc1OC(C)C)N2` (stereo unspecified), the melting point lay within 183 to 185 °C.

Turning to `Cc1cc(C2=NOC(c3cc(Cl)cc(Cl)c3)(C(F)(F)F)C2)ccc1C(=O)Nc1ncc(Br)cn1` (stereo unspecified), the melting point lay within 178 to 181 °C.

As to `CCn1cc(C(=O)O)c(=O)c2ccc(F)c(C)c21`, the melting point was 245 to 246 °C.

`C(=CCN(Cc1ccccc1)Cc1ccccc1)CN(Cc1ccccc1)Cc1ccccc1` returned a melting point of 114 to 115 °C.

Regarding `COC(=O)C1=CC[C@H]2[C@@](C=O)(CCC3C(C)(C)CCC[C@@]32C)C(=O)C1` (stereo partly specified), the melting point lay in the range of 86 to 88 °C.

In turn, `Cc1oc(-c2ccco2)nc1COc1ccc(Cc2nc(CCC(=O)O)c(-c3ccccc3)o2)cc1` had a melting point of 154 to 155 °C.

On to `CCc1oc(-c2ccc(S(C)(=O)=O)cc2)c(Oc2ccc(F)cc2F)c(=O)c1C`, for which the melting point was found to be 200 °C.

Compound `CC(C)(C)OC(=O)N1CCN(CC(=O)N2CCC3(CC2)Cn2cc([N+](=O)[O-])nc2O3)CC1` yielded a melting point of 211 to 213 °C.

`CC(C)(C)C(NC(=O)c1cccc(-c2ccco2)c1)Nc1c(Nc2cccnc2)c(=O)c1=O` (stereo unspecified) gave a melting point of 251 to 252 °C.

Compound `CCc1cccc(CC(=O)O)c1OCCCc1cn(-c2ccc(Cl)cn2)nc1C(CC)CC` showed a melting point of 114 to 115 °C.

Consider `COc1ccc([N+](=O)[O-])c(CS(=O)(=O)c2ccccc2)n1`, for which the melting point was 147 to 149 °C.

`CN(CCO)c1ccncc1`: the melting point fell in the range of 90 to 91 °C.

The compound `O=c1[nH]c2cc(Cl)c(Cl)cc2[n+]([O-])c1-c1cccc(Oc2ccccc2)c1` yielded a melting point of 258 to 260 °C.

`CSc1nc(NC(=O)NS(=O)(=O)c2ccccc2C(=O)OC(C)C)nn1C` returned a melting point of 192 to 194 °C.

Regarding `O=c1[nH]cc(C2CCCCC2)c2ccccc12`, the melting point fell in the range of 111 to 112 °C.

The compound `Cc1c(F)c(F)cc(C(N)=O)c1F` yielded a melting point of 105 to 108 °C.

Turning to `N#CC(c1ccc(Cl)c(C(F)(F)F)c1)N1CCOCC1` (stereo unspecified), the melting point is 73 to 74 °C.

For `O=C(CC12CC3CC(CC(C3)C1)C2)N1CCc2sccc2C1`, the melting point is 121 to 125 °C.

The compound `Nc1c(Br)cc2c(c1Br)CCC2` showed a melting point of 220 to 221 °C.

On to `COc1ccc2ccc(N3C(=O)c4ccccc4C3OCC(=O)N3CCC(O)CC3)nc2n1` (stereo unspecified), for which the melting point is 167 °C.

Compound `O=C(NCCCn1ccnc1)c1ccccc1` registered a melting point of 134 to 136 °C.

`CCOC(=O)C(=O)Nc1nc2c(OC)ccc(-c3ccccc3)c2s1` showed a melting point of 138 to 142 °C.

For `COc1cc(COc2cc(C=O)n(-c3ccccc3)n2)ccc1OCc1nc(-c2ccccc2)oc1C`, the melting point fell in the range of 119 to 120 °C.

Regarding `Ic1ccc(CCc2ccc(I)cc2)cc1`, the melting point was in the range of 150 to 151 °C.

Regarding `O=C(O)C1Cc2ccccc2N1C(=O)c1ccccc1` (stereo unspecified), the melting point lay in the range of 209 to 210 °C.

As to `O=C1CC(O)CC(C=CC2=C(c3ccc(F)cc3)CC3CCC2C3)O1` (stereo unspecified), the melting point lay within 123 to 127 °C.

With `CN(c1ccc(Cl)cc1)S(=O)(=O)c1c[nH]cn1`, the melting point was 217 to 219 °C.

For `CN(C)C=C(C=O)c1cccc(F)c1`, the melting point lay in the range of 42 to 43.5 °C.

On to `COC(=O)C1Cc2cc(OC)ccc2N1S(=O)(=O)c1ccc(I)cc1` (stereo unspecified), for which the melting point came out at 154 °C.

For `CN(C)CCNc1cc(CNc2ccccc2C(=O)Nc2cccc(C(F)(F)F)c2)ccn1`, the melting point came to 100 °C.

Compound `O=[N+]([O-])c1oc2ccccc2c1Br` had a melting point of 130 to 132 °C.

Turning to `Cc1cccc(NCCC#N)c1C`, the melting point lay in the range of 65.5 to 67 °C.

For the compound `CCOC(=O)c1ncc2[nH]c3ccccc3c2c1C`, the melting point was 235 to 239 °C.

Compound `Cc1oc(-c2ccccc2)nc1CCOc1ccc(C[C@H](NCc2ccc(F)cc2)C(=O)O)cc1` gave a melting point of 184 to 186 °C.
